Measurements as given in US6623740B1, “Structurally modified peptides that are resistant to peptidase degradation” (Ludwig Institute for Cancer Research, priority 1997, dated 2003).

Method: At different times, an aliquot measuring about 150 μl was removed and the enzymatic reaction stopped by addition of 15 μl trifluoroacetic acid (TFA). Precipitated serum proteins were pelleted by centrifugation at 15000 rpm for 10 min at 4° C. The supernatants were frozen and preserved at −20° C. until analysis.
The peptide and its degradation product(s) were then separated by reverse phase chromatography (RP-HPLC). Peaks corresponding to the different products were quantified. HPLC analysis of the various peptide samples collected at different incubation times was conducted. As well, peptide degradation kinetics including the half-life of the various peptide samples was recorded together with any increase in the degradation products of the peptide samples under investigation.
The following HPLC conditions were used:
i) column: 5-μm 4.6 mm×25 cm, C18 (Beckman),
ii) gradient: 4-20% CH3CN (0.08% TFA in H2O, 0.08% TFA in CH3CN), 0-30 min,
iii) UV detection: 200-300 nm using a Waters 996 photodiode array detector,
iv) chromatograms obtained at 225 and 280 nm were also derived.

Structure (SMILES): C[C@H](NC(=O)[C@@H](N)CCC(=O)O)C(=O)N[C@@H](CC(=O)O)C(=O)N1CCC[C@H]1C(=O)N[C@H](C(=O)NCC(=O)N[C@@H](Cc1c[nH]cn1)C(=O)N[C@@H](CO)C(=O)N[C@@H](Cc1ccc(O)cc1)C(=O)O)[C@@H](C)O [MZ2-E]
- t ½ of degradation by peptidase present in human serum: ½
